Legend:
[1] = tested on: microorganisms; settings: as low as 1 or 2 ppm peracetic acid; cited from earlier work
[2] = Stability/decomposition of peracetic acid formed in buffered aqueous medium (Example 1, FIG. 4); type: physicochemical; settings: 25° C.
Text: The mole ratio of hydrogen peroxide to acetic anhydride used in this Example 1 was 5.7 moles H2O2 per mole of acetic anhydride, a mole ratio that provided a large stoichiometric excess of hydrogen peroxide. Three pH values were used: 10.0, 6.8 and 4.5. The aqueous medium in each study was appropriately buffered to maintain the specific pH value throughout the duration of the run.
In each of the three runs, the operating procedure was as follows. A dilute aqueous buffered hydrogen peroxide solution, containing 585 ppm H2O2, was prepared and maintained at a temperature of 25° C. No hydrogen peroxide stabilizers were added to the solution. Acetic anhydride, undiluted (i.e., 100%) and in an amount sufficient to provide the desired 5.7:1 mole ratio of H2O2:acetic anhydride, was added to the buffered hydrogen peroxide solution. Measurements of peracetic acid and hydrogen peroxide concentrations were obtained from samples taken periodically over a period of 180 minutes. Results of these three studies, as peracetic acid concentration vs. time, are plotted in the graph shown as FIG. 4.

[3] = aqueous solution; cited from earlier work
[4] = cited from earlier work

Molecule	activity at very low concentrations [1]	peracetic stability ([2]; pH 6.8, buffered aqueous medium, 5.7:1 H2O2:acetic anhydride, followed over 180 minutes)	decomposition of the peracetic acid formed ([2]; pH 10.0, buffered aqueous medium, after peracetic acid formation was complete)	acid dissociation constant (pKa) [3]	solubility in water [4]
Peracetic acid	very active	relatively good	high	8.2	
CC(=O)OC(C)=O [Acetic anhydride]					less than 3 wt %
